In PubChem BioAssay (NCI):
Where “and” joins values, the source holds several entries; their conditions need not be identical. Equal entries are not always repeated.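 Five compound concentrations were applied to cells in 96-well plates for 48 hours; endpoints were derived by simple linear interpolation of the resulting dose-response curve. GI50 marks 50% less growth. TGI: concentration producing complete growth inhibition.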

Assays:
Assay in all cases: DTP human tumour cell line panel, 48 h
786-0 renal = system: 786-0 renal
A498 renal = system: A498 renal
A549 NSCLC = system: A549 NSCLC
ACHN renal = system: ACHN renal
BT-549 breast = system: BT-549 breast
CCRF-CEM leukemia = system: CCRF-CEM leukemia
COLO 205 colon = system: COLO 205 colon
DU-145 prostate = system: DU-145 prostate
EKVX NSCLC = system: EKVX NSCLC
HCC-2998 colon = system: HCC-2998 colon
HCT-116 colon = system: HCT-116 colon
HCT-15 colon = system: HCT-15 colon
HL-60(TB) leukemia = system: HL-60(TB) leukemia
HOP-62 NSCLC = system: HOP-62 NSCLC
HOP-92 NSCLC = system: HOP-92 NSCLC
HS 578T breast = system: HS 578T breast
HT29 colon = system: HT29 colon
IGROV1 ovarian = system: IGROV1 ovarian
K-562 leukemia = system: K-562 leukemia
KM12 colon = system: KM12 colon
LOX IMVI melanoma = system: LOX IMVI melanoma
M14 melanoma = system: M14 melanoma
MALME-3M melanoma = system: MALME-3M melanoma
MCF7 breast = system: MCF7 breast
MDA-MB-231 breast = system: MDA-MB-231 breast
MDA-MB-435 = system: MDA-MB-435
MOLT-4 leukemia = system: MOLT-4 leukemia
NCI-H226 lung = system: NCI-H226 lung
NCI-H23 lung = system: NCI-H23 lung
NCI-H460 lung = system: NCI-H460 lung
NCI-H522 lung = system: NCI-H522 lung
NCI/ADR-RES ovarian = system: NCI/ADR-RES ovarian
OVCAR-3 ovarian = system: OVCAR-3 ovarian
OVCAR-4 ovarian = system: OVCAR-4 ovarian
OVCAR-5 ovarian = system: OVCAR-5 ovarian
OVCAR-8 ovarian = system: OVCAR-8 ovarian
PC-3 prostate = system: PC-3 prostate
RPMI-8226 leukemia = system: RPMI-8226 leukemia
RXF 393 renal = system: RXF 393 renal
SF-268 CNS = system: SF-268 CNS
SF-295 CNS = system: SF-295 CNS
SF-539 CNS = system: SF-539 CNS
SK-MEL-2 melanoma = system: SK-MEL-2 melanoma
SK-MEL-5 melanoma = system: SK-MEL-5 melanoma
SK-OV-3 ovarian = system: SK-OV-3 ovarian
SN12C renal = system: SN12C renal
SNB-19 CNS = system: SNB-19 CNS
SNB-75 CNS = system: SNB-75 CNS
SR leukemia = system: SR leukemia
SW-620 colon = system: SW-620 colon
T-47D breast = system: T-47D breast
U251 CNS = system: U251 CNS
UACC-62 melanoma = system: UACC-62 melanoma
UO-31 renal = system: UO-31 renal

**Q.** What does the source list for `COC(=O)[C@@H](C)C[C@H](Cc1ccccc1)NC(=O)c1csc([C@@H](C[C@H](C(C)C)N(C)C(=O)C2(NC(=O)[C@H]3CCCCN3C)CC2)OC(C)=O)n1`?
**A.** TGI (786-0 renal): > 33.3 µM; GI50 (A498 renal): 8.58 nM and < 3.33 nM; TGI (A549 NSCLC): > 33.3 µM; TGI (ACHN renal): > 33.3 µM; GI50 (BT-549 breast): 5.49 nM and < 3.33 nM; TGI (BT-549 breast): < 3.33 nM; GI50 (CCRF-CEM leukemia): 5.31 nM and 3.33 nM; TGI (CCRF-CEM leukemia): > 33.3 µM; GI50 (COLO 205 colon): 3.46 nM; TGI (COLO 205 colon): 64.4 nM; GI50 (DU-145 prostate): 3.48 nM and 3.33 nM; TGI (EKVX NSCLC): > 33.3 µM; GI50 (HCC-2998 colon): 8.49 nM and 3.33 nM; TGI (HCC-2998 colon): > 33.3 µM; GI50 (HCT-116 colon): 3.43 nM and 3.33 nM; TGI (HCT-116 colon): > 33.3 µM; GI50 (HCT-15 colon): 424 nM; GI50 (HL-60(TB) leukemia): 0.657 nM and < 3.33 nM; TGI (HL-60(TB) leukemia): 6.85 nM and < 3.33 nM; TGI (HOP-62 NSCLC): > 33.3 µM; GI50 (HOP-92 NSCLC): 4.34 nM and 3.33 nM; TGI (HOP-92 NSCLC): 5.29 µM; GI50 (HS 578T breast): 19.1 nM; GI50 (HT29 colon): 3.51 nM and 3.33 nM; TGI (HT29 colon): 7.65 µM; GI50 (IGROV1 ovarian): 1.47 nM and 3.33 nM; TGI (IGROV1 ovarian): > 33.3 µM; GI50 (K-562 leukemia): 2.44 nM and 3.33 nM; TGI (K-562 leukemia): > 33.3 µM; GI50 (KM12 colon): 6.55 nM and 3.33 nM; TGI (KM12 colon): > 33.3 µM; GI50 (LOX IMVI melanoma): 9.47 nM and 3.33 nM; TGI (LOX IMVI melanoma): > 33.3 µM; GI50 (M14 melanoma): 5.04 nM and 3.33 nM; TGI (M14 melanoma): 468 nM; GI50 (MALME-3M melanoma): > 33.3 µM; TGI (MALME-3M melanoma): > 33.3 µM; GI50 (MCF7 breast): 0.612 nM and 3.33 nM; TGI (MCF7 breast): > 33.3 µM; GI50 (MDA-MB-231 breast): 6.81 nM and 3.33 nM; TGI (MDA-MB-231 breast): 4.36 µM; GI50 (MDA-MB-435): 0.405 nM and < 3.33 nM; TGI (MDA-MB-435): 2.73 nM and < 3.33 nM; GI50 (MOLT-4 leukemia): 9.65 nM and 3.33 nM; TGI (MOLT-4 leukemia): > 33.3 µM; GI50 (NCI-H226 lung): 3.33 nM; TGI (NCI-H226 lung): > 33.3 µM; GI50 (NCI-H23 lung): 17.2 nM and 3.33 nM; TGI (NCI-H23 lung): > 33.3 µM; GI50 (NCI-H460 lung): 11.1 nM and 3.33 nM; TGI (NCI-H460 lung): > 33.3 µM; GI50 (NCI-H522 lung): 0.537 nM; TGI (NCI-H522 lung): 4.91 nM; GI50 (NCI/ADR-RES ovarian): > 33.3 µM; TGI (NCI/ADR-RES ovarian): > 33.3 µM; GI50 (OVCAR-3 ovarian): 0.567 nM and 3.33 nM; GI50 (OVCAR-4 ovarian): 8.65 nM; TGI (OVCAR-5 ovarian): > 33.3 µM; TGI (OVCAR-8 ovarian): > 33.3 µM; GI50 (PC-3 prostate): 5.23 nM and 3.33 nM; TGI (PC-3 prostate): > 33.3 µM; GI50 (RPMI-8226 leukemia): 0.613 nM and 3.33 nM; TGI (RPMI-8226 leukemia): 17 µM; GI50 (RXF 393 renal): 21.6 nM; TGI (SF-268 CNS): > 33.3 µM; GI50 (SF-295 CNS): 25.1 nM and 3.33 nM; TGI (SF-295 CNS): > 33.3 µM; GI50 (SF-539 CNS): 8.68 nM and < 3.33 nM; GI50 (SK-MEL-2 melanoma): 4.11 nM; GI50 (SK-MEL-5 melanoma): 3.74 nM and 3.33 nM; GI50 (SK-OV-3 ovarian): 18.3 nM and < 3.33 nM; TGI (SK-OV-3 ovarian): < 3.33 nM; GI50 (SN12C renal): 15.6 nM and 3.33 nM; TGI (SN12C renal): > 33.3 µM; GI50 (SNB-19 CNS): 8.24 nM and 3.33 nM; TGI (SNB-19 CNS): > 33.3 µM; GI50 (SNB-75 CNS): 4.34 nM and 3.33 nM; TGI (SNB-75 CNS): > 33.3 µM; GI50 (SR leukemia): 0.486 nM and 3.33 nM; TGI (SR leukemia): > 33.3 µM; GI50 (SW-620 colon): 3.17 nM and 3.33 nM; TGI (SW-620 colon): > 33.3 µM; GI50 (T-47D breast): 3.33 nM; TGI (T-47D breast): > 33.3 µM; GI50 (U251 CNS): 9.13 nM and 3.33 nM; TGI (U251 CNS): > 33.3 µM; GI50 (UACC-62 melanoma): 3.52 nM and 3.33 nM; TGI (UACC-62 melanoma): > 33.3 µM; GI50 (UO-31 renal): 1300 nM; TGI (UO-31 renal): > 33.3 µM
